Here are results for 5 compounds from patent US7662862B2, “5-HT7 receptor antagonists” (Laboratorios Del Dr. Esteve, S.A., priority 2004, dated 2010).

Structures can show the parent of a compound that is named as a salt.

Chain of Cloned Human Serotonin Receptor, Subtype 7 (h5HT7) (P34969 whole entry): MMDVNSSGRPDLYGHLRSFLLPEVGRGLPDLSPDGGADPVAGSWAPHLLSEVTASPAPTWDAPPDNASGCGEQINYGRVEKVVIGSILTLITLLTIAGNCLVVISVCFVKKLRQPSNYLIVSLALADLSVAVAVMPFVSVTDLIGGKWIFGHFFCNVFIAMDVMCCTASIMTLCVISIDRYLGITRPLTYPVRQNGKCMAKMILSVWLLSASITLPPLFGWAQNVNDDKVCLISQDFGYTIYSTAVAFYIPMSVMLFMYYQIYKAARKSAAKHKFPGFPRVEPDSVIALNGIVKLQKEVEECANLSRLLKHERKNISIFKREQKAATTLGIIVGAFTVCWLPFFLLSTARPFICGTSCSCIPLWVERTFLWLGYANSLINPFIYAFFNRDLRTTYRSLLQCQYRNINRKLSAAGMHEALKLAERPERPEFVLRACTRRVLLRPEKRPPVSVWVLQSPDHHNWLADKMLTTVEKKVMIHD

This assay concerns the target Cloned Human Serotonin Receptor, Subtype 7 (h5HT7) (Homo sapiens, UniProt P34969). As to the kind of experiment: Radioligand binding assay, [125I]LSD, cloned human 5-HT7 receptor expressed in CHO cells (Flashplate). The following applies: radioligand [125I]LSD 0.82 nM, 240 min at room temperature, triplicate, read-out: 5-HT7 IC-50. As to the method:
Biological Assays Radioligand Binding
Radioligand binding assays were performed using the Cloned Human Serotonin Receptor, Subtype 7 (h5HT7), expressed in CHO cells, coated on Flashplate (Basic FlashPlate Cat.: SMP200) from PerkinElmer (Cat.: 6120512). The protocol assay was essentially the recommended protocol in the Technical Data Sheet by PerkinEmer Life and Analytical Sciences. The Mass membrane protein/well was typically 12 μg and the Receptor/well was about 9-10 fmoles. The Flashplate were let equilibrate at room temperature for one hour before the addition of the components of the assay mixture. The binding buffer was: 50 mM Tris-HCl, pH 7.4, containing 10 mM MgCl2, 0.5 mM EDTA and 0.5% BSA. The radioligand was [^125I]LSD at a final concentration of 0.82 nM. Nonspecific binding was determined with 50 μM of Clozapine. The assay volume was 25 μl. TopSeal-A were applied onto Flashplate microplates and they were incubated at room temperature for 240 minutes in darkness. The radioactivity were quantified by liquid scintillation spectrophotometry (Wallac 1450 Microbeta Trilux) with a count delay of 4 minutes prior to counting and a counting time of 30 seconds per well. Competition binding data were analyzed by using the LIGAND program (Munson and Rodbard, LIGAND: A versatile, computerized approach for characterization of ligand-binding systems. Anal. Biochem. 107: 220-239, 1980) and assays were performed in triplicate determinations for each point.
Take `CCN(CCCN1CCc2cccc3c2C1CC3)S(=O)(=O)c1cccc(C)c1` (centres unmarked) [Compound 88, N-Ethyl-3-methyl-N-[3-(2,2a,4,5-tetrahydro-1H-3-aza-acenaphthylen-3-yl)-propyl]-benzenesulfonamide hydrochloride]: the IC50 was 4.5 nM.
Turning to `CCN(CCCN1CCc2cccc3c2C1CC3)S(=O)(=O)c1ccc(C)cc1` (centres unmarked) [Compound 89, N-Ethyl-4-methyl-N-[3-(2,2a,4,5-tetrahydro-1H-3-aza-acenaphthylen-3-yl)-propyl]-benzenesulfonamide hydrochloride], the IC50 amounted to 6.7 nM.
For the compound `CCN(CCCN1CCc2cc(OC)c(OC)c3c2C1CC3)S(=O)(=O)c1cc(Cl)ccc1Cl` (centres unmarked) [Compound 80, 2,5-Dichloro-N-[3-(7,8-dimethoxy-2,2a,4,5-tetrahydro-1H-3-aza-acenaphthylen-3-yl)-propyl]-N-ethyl-benzene sulfonamide hydrochloride], the IC50 turned out to be 6.2 nM.
Consider `CCN(CCCN1CCc2cc(OC)c(OC)c3c2C1CC3)S(=O)(=O)c1ccccc1Cl` (centres unmarked) [Compound 111, 2-Chloro-N-[3-(7,8-dimethoxy-2,2a,4,5-tetrahydro-1H-3-aza-acenaphthylen-3-yl)-propyl]-N-ethyl-benzenesulfonamide hydrochloride], for which the IC50 is 8 nM.
On to `CCN(CCCN1CCc2cccc3c2C1CC3)S(=O)(=O)c1cccc2ccccc12` (centres unmarked) [Compound 87, Naphthalene-1-sulfonic acid ethyl-[3-(2,2a,4,5-tetrahydro-1H-3-aza-acenaphthylen-3-yl)-propyl]-amide hydrochloride], for which the IC50 stood at 20.3 nM.
